Laboratory results taken from patent publication US20210386762A1, “THE APPLICATION OF URSODEOXYCHOLIC ACID OR ITS PHARMACEUTICAL SALT IN THE PREPARATION OF AN ANTITUMOR DRUG AND AN ANTITUMOR DRUG” (ZHEJIANG UNIVERSITY, priority 2018, published 2021).

Legend:
[1] = test system: colon cancer cell line MC38; assay: Colon cancer tumor-bearing mouse model (C57BL/6); format: in vivo
Source text: (§1) Female C57BL/6 (6-8 weeks old) mice were purchased from Shanghai SLAC Laboratory Animal Co., Ltd.; humanized PD-1 transgenic mice were purchased from Nanjing Biomedical Research Institute of Nanjing University; and all mice were raised in SPF facilities. Mouse colon cancer cell line MC38, lung cancer cell line LLC-luci and melanoma cell line B16 were all purchased from American Type Culture Collection (ATCC). Since Treg cells can inhibit extensive antitumor immune response while promoting angiogenesis in the tumor microenvironment, to explore the in vivo influence of ursodeoxycholic acid on Treg cells, tumor-bearing models are established using mouse colon cancer cell line MC38, lung cancer cell line LLC-luci and melanoma cell line B16, with female SPF-grade C57BL/6 as the experiment subject. For better internal absorption of ursodeoxycholic acid, the above-mentioned ursodeoxycholic acid is replaced with sodium ursodeoxycholate (SANTA CRUZ BIOTECHNOLOGY, #2898-95-5). The control group and the experimental group both received injection of ddH2O and URSO (30 mg/kg) every day, with tumor size observed and recorded. […] Two weeks later, separate the tumor-infiltrating lymphocytes for analysis by flow cytometry. […]

[2] = test system: lung cancer cell line LLC-luci; assay: Lung cancer tumor-bearing mouse model (C57BL/6); format: in vivo
Source text: as §1

[3] = test system: colon cancer cell line MC38; assay: Combination with anti-PD-1 antibody, colon cancer model in humanized PD-1 transgenic mice; format: in vivo, mouse; details: MC38 subcutaneous, SHR-1210 10 mg/kg every two days, URSO 30 mg/kg every other day, vs water and humanized IgG4 (FIG. 5)
Source text: (§2) Female C57BL/6 (6-8 weeks old) mice were purchased from Shanghai SLAC Laboratory Animal Co., Ltd.; humanized PD-1 transgenic mice were purchased from Nanjing Biomedical Research Institute of Nanjing University; and all mice were raised in SPF facilities. Mouse colon cancer cell line MC38, lung cancer cell line LLC-luci and melanoma cell line B16 were all purchased from American Type Culture Collection (ATCC).
(§3) To verify whether the combined use of ursodeoxycholic acid and anti-PD-1 antibody can improve antitumor effect, colon cancer cell line MC38, melanoma cell line B16 and lung cancer cell line LLC are inoculated subcutaneously into humanized PD-1 transgenic mice, which were randomly divided into four groups when tumor volume reaches 100 mm^3. Treatment groups were treated with SHR-1210, URSO or SHR-1210 in combination with URSO, while the control groups were injected with water and humanized IgG4 (an isotype control for SHRR-1210). SHR-1210 was used every two days at a dosage of 10 mg/kg, while URSO was used every other day at 30 mg/kg, with the volume of tumor recorded each time.

melanoma cell line B16 [4] = assay: Combination with anti-PD-1 antibody, melanoma model in humanized PD-1 transgenic mice; format: in vivo, mouse; details: B16 subcutaneous, SHR-1210 10 mg/kg every two days, URSO 30 mg/kg every other day, vs water and humanized IgG4 (FIG. 7)
Source text: as §2, §3

melanoma cell line B16 [5] = assay: Melanoma tumor-bearing mouse model (C57BL/6); format: in vivo
Source text: as §1

[6] = test system: lung cancer cell line LLC; assay: Combination with anti-PD-1 antibody, lung cancer model in humanized PD-1 transgenic mice; format: in vivo, mouse; details: LLC subcutaneous, SHR-1210 10 mg/kg every two days, URSO 30 mg/kg every other day, vs water and humanized IgG4 (FIG. 6)
Source text: as §2, §3

[7] = test system: Treg cell differentiation (human naïve CD4+ T cells); assay: In vitro Treg cell differentiation of human naïve CD4+ T cells, flow cytometry; format: cell-based; details: human naïve CD4+ T cells from healthy volunteers, CD3/CD28 activation, flow cytometry on day 4 (FIG. 8)
Method: To investigate the influence of ursodeoxycholic acid on humanized Treg cell differentiation, whole blood of volunteers were collected (ethics approval: approved by Medical Ethics Committee of Zhejiang University School of Medicine, Shen Lun No. 2019-013; five healthy volunteers, 10 ml peripheral venous blood each, collected by Zhejiang Medial & Health Group Hangzhou Hospital). naïve CD4+ T cells were sorted. Detailed procedures are as follows: 1. Separation of peripheral blood mononuclear cells: • (1) Fresh anticoagulant whole blood (EDTA, sodium citrate or heparin) was taken. Whole blood was diluted with isotonic solution (PBS or normal saline) of equal volume. • (2) A certain volume of separating medium (VESTA, #7111011) was added into a centrifuge tube, diluted blood sample was spread evenly on the surface of separating medium, and maintained a clear interface between two liquid surfaces. […] Sorting of human naïve CD4+ T cells: • (1) With Human naïve CD4+ T Cell Kit (STEMCELL, #19155) and the standard kit method adopted, naïve CD4+ T cells were sorted from human peripheral blood mononuclear cells, and plating was conducted according to the method in Example 1. • (2) Human T-Activator CD3/CD28 was added for T Cell Expansion and Activation (Gibco, #11161D). • (3) On day 4, Treg cell differentiation was detected by flow cytometry.

[8] = test system: Treg cell differentiation (mouse naïve CD4+ T cells); assay: In vitro Treg cell differentiation of mouse naïve CD4+ T cells, flow cytometry; format: cell-based; details: 50 μM vs DMSO, anti-CD3/anti-CD28, flow cytometry on day 4 (FIG. 1)
Source text: Treg cell surface can express CD4 and CD25 molecules. In addition, it is characterized by its high expression of transcription factor Foxp3. Based on the characteristic above, flow cytometry is adopted to explore the in vitro influence of ursodeoxycholic acid on Treg cell differentiation. Detailed procedures are as follows: T cell sorting: Mouse T cells were sorted by immunomagnetic beads methods. The mice were killed by cervical dislocation, spleens and lymph nodes were taken under aseptic conditions, ground and put through a sieve, centrifuged at 400 g for 5 min, and cells were resuspended with sort buffer. The total cells were counted with 3% glacial acetic acid, and proceeded strictly following the instructions of the sorting kit. CD4 negative selection kit (EasySep™ Mouse CD4+ T Cell Isolation Kit, #19852A) and Biotin sorting kit (EasySep™ Mouse Biotin Positive Selection Kit, #18556) were used in combination for sorting naïve CD4+ T cells (CD4-positive naïve T cells). […] After sorting, when the CD4+CD62L+ purity detected by flow cytometry is greater than 95%, cells were used for further experiments. […] DMSO or ursodeoxycholic acid U5127 (SIGMA-ALDRICH, #128-13-2) was added with a concentration of 50 μM respectively, and the differentiation of Treg cells were detected by flow cytometry on day 4. […]

## C[C@H](CCC(=O)[O-])[C@H]1CC[C@H]2[C@@H]3[C@@H](O)C[C@@H]4C[C@H](O)CC[C@]4(C)[C@H]3CC[C@]12C.[Na+] [URSO, sodium ursodeoxycholate]
[1]; C57BL/6 mice, 30 mg/kg injection every day, vs ddH2O control (FIG. 4A)
  tumor volume: obviously smaller in volume
[2]; C57BL/6 mice, 30 mg/kg injection every day, vs ddH2O control (FIG. 3A)
  tumor volume: obviously smaller in volume
[3]
  tumor growth (tumor volume): significantly inhibited tumor growth
Melanoma cell line B16 [4]
  tumor growth (tumor volume): significantly inhibited tumor growth
Melanoma cell line B16 [5]; C57BL/6 mice, 30 mg/kg injection every day, vs ddH2O control (FIG. 2A)
  tumor volume: obviously smaller in volume
[6]
  tumor growth (tumor volume): significantly inhibited tumor growth

## C[C@H](CCC(=O)O)[C@H]1CC[C@H]2[C@@H]3[C@@H](O)C[C@@H]4C[C@H](O)CC[C@]4(C)[C@H]3CC[C@]12C [ursodeoxycholic acid]
[1]; two weeks of treatment, flow cytometry (FIG. 4B)
  proportion of Treg cells in tumor infiltrating lymphocytes: reduced
[7]
  differentiation of humanized endogenous Treg cells: reduced
[2]; two weeks of treatment, flow cytometry (FIG. 3B)
  proportion of Treg cells in tumor infiltrating lymphocytes: reduced
[8]
  proportion of endogenous Treg cells: significantly reduced
Melanoma cell line B16 [5]; two weeks of treatment, flow cytometry (FIG. 2B)
  proportion of Treg cells in tumor infiltrating lymphocytes: reduced

B1: SHR-1210: humanized anti-PD-1 antibody produced by Hengrui Medicine (antibody, chains of the INN, looked up, V domains shown)
VH: EVQLVESGGGLVQPGGSLRLSCAASGFTFSSYMMSWVRQAPGKGLEWVATISGGGANTYYPDSVKGRFTISRDNAKNSLYLQMNSLRAEDTAVYYCARQLYYFDYWGQGTTVTVSS
VL: DIQMTQSPSSLSASVGDRVTITCLASQTIGTWLTWYQQKPGKAPKLLIYTATSLADGVPSRFSGSGSGTDFTLTISSLQPEDFATYYCQQVYSIPWTFGGGTKVEIK
[3]
  tumor growth (tumor volume): significantly inhibited tumor growth
Melanoma cell line B16 [4]
  tumor growth (tumor volume): significantly inhibited tumor growth
[6]
  tumor growth (tumor volume): significantly inhibited tumor growth
